In publication PMC10819565, “Effects of H2-Receptor Antagonists on the Exposure of Dacomitinib” (Pharmaceutics, 2024):
Converted amounts (≈) assume the structure as drawn. Read-outs that look alike come from different tables or passages of the source.

Assays:
[1] = parameters: method as in ref 26 = [26]; 26. US Food and Drug Administration (FDA) VIZIMPRO ® (Dacomitinib) Review Available online: https://www.accessdata.fda.gov/drugsatfda_docs/nda/2018/211288Orig1s000ChemR.pdf (accessed on 6 November 202); details: cited from earlier work
[2] = parameters: method as in ref 26 = [26]; 26. US Food and Drug Administration (FDA) VIZIMPRO ® (Dacomitinib) Review Available online: https://www.accessdata.fda.gov/drugsatfda_docs/nda/2018/211288Orig1s000ChemR.pdf (accessed on 6 November 202); details: cited from earlier work; remark: listed apart in the source
[3] = parameters: method as in ref 2 = [2]; 2. US Food and Drug Administration (FDA) VIZIMPRO ® (Dacomitinib) Prescribing Information Available online: https://www.accessdata.fda.gov/drugsatfda_docs/label/2018/211288s000lbl.pdf (accessed on 6 N); details: with 20 mL locally acting antacid (Maalox Maximum Strength, 400 mg/5 mL); cited from earlier work
[4] = parameters: method as in ref 26 = [26]; 26. US Food and Drug Administration (FDA) VIZIMPRO ® (Dacomitinib) Review Available online: https://www.accessdata.fda.gov/drugsatfda_docs/nda/2018/211288Orig1s000ChemR.pdf (accessed on 6 November 202); details: base; cited from earlier work
[5] = Oral absorption PBPK model (GastroPlus ACAT) simulations and gastric pH parameter sensitivity analysis; parameters: species or system human; details: 45 mg oral
Excerpt: (§1) PBPK modeling was used to evaluate the effect of changes in gastric pH on dacomitinib absorption. With physicochemical properties (e.g., Log P, pKa, mean precipitation time) and solubility data at different pH for dacomitinib, a two-compartment model coupled to the ACAT model was built using Gastroplus^TM version 9.7 (Simulation Plus, Inc., Lancaster, CA, USA) with default fasted gut physiology. Disposition PK parameters for dacomitinib were derived by initially fitting the PK data after intravenous (IV) administration from a study where the absolute bioavailability of dacomitinib was estimated by comparing oral to intravenous administration of dacomitinib in healthy volunteers.
The model that utilized the default physiological conditions of Gastroplus was used to simulate the plasma profiles for a 45 mg oral dose in healthy volunteers from the same study. […] The modified model was developed by optimizing the absorption scale factor (ASF) model based on the clinical PK data to reflect the prolonged Tmax of the plasma profile since all the systemic PK parameters were fixed after fitting the IV profile.
The model was validated using the mean plasma profiles of dacomitinib under 3 different conditions or treatments (fasted, fed, and PPI treatment using rabeprazole 40 mg administered QD for 7 days) following oral administration of a 45 mg dose in a clinical study in healthy volunteers to evaluate the food effect and effect of PPIs. In this study, PK samples were collected at the same nominal times of 0, 1, 2, 4, 6, 8, 12, 24, 48, 72, 96, 120, 144, 168, 192, 216 and 264 h post-dose. The mean plasma drug concentration–time profile of dacomitinib was obtained for each condition, namely fasted, fed and PPI treatment, and respective exposure parameters (Cmax and AUCinf) were derived from Gastroplus. The simulation was conducted using Gastroplus with the default physiological conditions of fasted or fed and by setting the gastric pH in the model to 6.0. This allowed for the simulation of the situations corresponding to fasted, fed and PPI treatment, respectively.
The gastric pH in the PBPK model was manipulated to enable the evaluation of a range of pH values from 1.0 to 6.0 during pharmacokinetic (PK) simulations. Parameter sensitivity analyses (PSAs) were performed on the PBPK model to assess the impact of pH variations from 1.0 to 5.0, which mimicked the effect of H2RAs on the absorption of dacomitinib.

[6] = Disposition PK parameters fitted to intravenous data from the absolute bioavailability study in healthy volunteers; type: in vivo, human; details: automatic estimation using PK Plus based on IV data from clinical study
Excerpt: as §1

[7] = healthy volunteers, cited from earlier work; for AUCinf Observed / Cmax Observed: 45 mg oral
[8] = Within-patient comparison of steady-state trough concentrations (Ctrough,ss) with and without concomitant H2RA, pooled data from 11 clinical studies; type: in vivo, human; details: for Ctrough,ss Geometric Mean (Geometric CV%), Test / Ctrough,ss Geometric Mean (Geometric CV%), Reference: patients, dose normalized to 45 mg QD; for Ctrough,ss Geometric Mean (Geometric CV%), Test: dacomitinib co-administered with H2RA (at least 3 days); for Ctrough,ss Geometric Mean (Geometric CV%), Reference: dacomitinib without H2RA
Method: This analysis included data from 11 clinical studies. Patients in these studies who received continuous oral dosing schedule of dacomitinib at dose levels of 45 mg once daily (QD), 30 mg QD, 15 mg QD and 60 mg QD, with a cycle duration of 28 days, are included in the analysis dataset. All trials were conducted in accordance with the International Council on Harmonization Good Clinical Practice guidelines and the provisions of the Declaration of Helsinki. The institutional review board or independent ethics committee at each participating center approved the protocol. All patients provided written informed consent before enrollment.
Patients in the 11 studies who received continuous oral dosing schedule of dacomitinib at dose levels of 45 mg once daily (QD), 30 mg QD, 15 mg QD and 60 mg QD, with a cycle duration of 28 days, are included in the analysis dataset. […] PF-05199265 has been identified to have an inhibitory and selectivity profile similar to the parent molecule. For each patient, steady-state trough concentrations (Ctrough,ss) were defined as an observed concentration collected at the nominal predose (0 h) time point on Day 1 of Cycle 2 through Cycle 10 with at least 14 days of continuous dacomitinib dosing at one dose level. Ctrough,ss were dose normalized to 45 mg, calculated as Ctrough,ss times 45 mg/dose for the analysis and reporting.
The Ctrough,ss values were used to represent steady-state exposure in patients following administration of 45 mg QD dacomitinib.
The Ctrough,ss collected prior to any reported H2RA use or at least 14 days after the last reported date of H2RA use served as the dacomitinib without H2RA reference. Dacomitinib co-administered with H2RA as the comparator was defined as Ctrough,ss collected after the use of any reported H2RA continuously for at least 3 days. The H2RAs reported in these studies included cimetidine, famotidine, nizatidine and ranitidine.

[9] = co-administration with PPI (rabeprazole 40 mg QD for 7 days)
[10] = single 45 mg dose after 7 days of rabeprazole 40 mg

Question: Which Solubility ([1]; pH 1.28) does the source give for `COc1cc2ncnc(Nc3ccc(F)c(Cl)c3)c2cc1NC(=O)/C=C/CN1CCCCC1` [dacomitinib] here?
Answer: Its Solubility is 10.0 mg/mL (≈ 21300 µM).

Question: What about the Solubility ([1]; pH 4.71) of the same compound?
Answer: The Solubility was 3.7 mg/mL (≈ 7870 µM).

Question: And the Solubility ([1]; pH 5.09)?
Answer: The Solubility was 0.34 mg/mL (≈ 723 µM).

Question: And the Solubility ([1]; pH 5.17)?
Answer: Its Solubility is 0.23 mg/mL (≈ 489 µM).

Question: What about the Solubility ([1]; pH 5.3) of the same compound?
Answer: The Solubility was 0.16 mg/mL (≈ 340 µM).

Question: What about the Solubility ([1]; pH 6.13) of the same compound?
Answer: The Solubility was 0.006 mg/mL (≈ 12.8 µM).

Question: And the Solubility ([1]; pH 6.94)?
Answer: The Solubility was 0.001 mg/mL (≈ 2.13 µM).

Question: What about the LogP ([2]; cationic) of the same compound?
Answer: Its LogP is 1.8.

Question: And the LogP ([2]; neutral)?
Answer: Its LogP is 5.3.

Question: And the “changes in dacomitinib concentrations” value [3]?
Answer: The value was “did not cause clinically relevant changes”.

Question: What about the pKa [4] of the same compound?
Answer: Its pKa is 5.03 (base).

Question: And the “Ratio of AUCinf (predicted-to-observed)” value ([5]; co-administration with PPI)?
Answer: Its value is 0.857.

Question: What about the “Ratio of Cmax (predicted-to-observed)” value ([5]; co-administration with PPI) of the same compound?
Answer: Its value is 0.940.

Question: What about the “Ratio of AUCinf (predicted-to-observed)” value ([5]; fasted state) of the same compound?
Answer: Its value is 1.00.

Question: What about the “Ratio of Cmax (predicted-to-observed)” value ([5]; fasted state) of the same compound?
Answer: The value was 1.01.

Question: What about the “Ratio of AUCinf (predicted-to-observed)” value ([5]; fed state) of the same compound?
Answer: The value was 1.07.

Question: What about the “Ratio of Cmax (predicted-to-observed)” value ([5]; fed state) of the same compound?
Answer: Its value is 0.952.

Question: What about the K12 [6] of the same compound?
Answer: Its K12 is 0.033 h⁻¹.

Question: And the K21 [6]?
Answer: Its K21 is 0.038 h⁻¹.

Question: And the V2 [6]?
Answer: The V2 was 19.018 L/kg.

Question: What about the Vc [6] of the same compound?
Answer: Its Vc is 21.9 L/kg.

Question: What about the clearance ([6]; human, plasma, two-compartment model, healthy volunteers) of the same compound?
Answer: The clearance was 602 mL/min.

Question: What about the “AUCinf Observed” value [7, 9] of the same compound?
Answer: Its value is 0.71596 µg·h/mL.

Question: And the “Cmax Observed” value [7, 9]?
Answer: Its value is 0.009125 µg/mL.

Question: What about the “AUCinf Observed” value ([7]; fasted state) of the same compound?
Answer: The value was 1.171 µg·h/mL.

Question: What about the “Cmax Observed” value ([7]; fasted state) of the same compound?
Answer: Its value is 0.01841 µg/mL.

Question: And the “AUCinf Observed” value ([7]; fed state)?
Answer: Its value is 1.163 µg·h/mL.

Question: What about the “Cmax Observed” value ([7]; fed state) of the same compound?
Answer: Its value is 0.02135 µg/mL.

Question: What about the “decrease of AUC” value ([7]; co-administration with multiple doses of rabeprazole (a PPI)) of the same compound?
Answer: Its value is 39%.

Question: What about the “reduction of AUC0-96” value [7, 10] of the same compound?
Answer: Its value is 39%.

Question: What about the “reduction of Cmax” value [7, 10] of the same compound?
Answer: The value was 51%.

Question: What about the “Ctrough,ss Geometric Mean (Geometric CV%), Test” value [8] of the same compound?
Answer: Its value is 53.2 ng/mL.

Question: And the “Ctrough,ss Geometric Mean (Geometric CV%), Test” value ([8]; listed as Dacomitinib)?
Answer: Its value is 53.2 (18.7) ng/mL.

Question: And the “Ctrough,ss Geometric Mean (Geometric CV%), Reference” value [8]?
Answer: Its value is 57.56 ng/mL.

Question: And the “Ctrough,ss Geometric Mean (Geometric CV%), Reference” value ([8]; listed as Dacomitinib)?
Answer: Its value is 57.56 (8.4) ng/mL.

Question: And the “Ctrough,ss Geometric Mean Ratio test/reference (90% CI)” value ([8]; with H2RA vs without H2RA, adjusted, linear mixed effects model)?
Answer: The value was 85.88 (72.9, 101.11) %.
